The target in assay [1] is Beta Lactamase (Pseudomonas aeruginosa, UniProt Q932Y6). The experiment in a line: beta-lactamase reporter inhibitor potency, dose response, artefact control for TLR9-MyD88 binding inhibitor project, BLA reporter cells, FRET fluorescence (AID 588341).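 Further: cell based assay in CHO-K1 cells stably expressing beta-lactamase.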 Format: cell-based.
Assay [2] concerns the target Glucose-6-phosphate 1-dehydrogenase (Homo sapiens, UniProt P11413). Briefly: human G6PD enzyme inhibitors, dose response, selectivity assay for P. falciparum G6PD inhibitor project, biochemical, fluorescence (AID 504792). Format: functional.
Assay [3] relates to Streptococcus sp. 'group A'. Briefly: growth inhibition of control SK(-) GAS strain, dose response, counter-screen for streptokinase expression inhibitor project, luminescence, kanamycin, BacTiterGlo, confirmation (AID 1900). Format: functional, organism-based.
Assay [4] concerns the target Melanocortin receptor 4 (Homo sapiens, UniProt P32245). Briefly: MC4R antagonist potency on cAMP, dose response, cell-based, TR-FRET, biased antagonists (AID 602298).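 Further: antagonist potency against agonist-stimulated cAMP production.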 Type of assay: functional. On the technique in general: Time-resolved FRET reads energy transfer from a long-lived donor to a nearby acceptor.
A short description of assay [5]: inhibitors of intracellular T. cruzi replication, confirmation, NIH3T3 host cells, beta-gal luminescence (AID 2044).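 Further: intracellular parasites grown in NIH/3T3 mouse fibroblasts as host cells; luminescent beta-galactosidase reporter signal from transgenic T. cruzi replicating inside host cells; inhibitors lower the luminescence signal.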 Type of assay: functional, cell-based.
Assay [6] has as its target T1, Streptokinase A (Streptococcus pyogenes serotype M1, UniProt P10520).
T1 sequence (P10520 whole entry): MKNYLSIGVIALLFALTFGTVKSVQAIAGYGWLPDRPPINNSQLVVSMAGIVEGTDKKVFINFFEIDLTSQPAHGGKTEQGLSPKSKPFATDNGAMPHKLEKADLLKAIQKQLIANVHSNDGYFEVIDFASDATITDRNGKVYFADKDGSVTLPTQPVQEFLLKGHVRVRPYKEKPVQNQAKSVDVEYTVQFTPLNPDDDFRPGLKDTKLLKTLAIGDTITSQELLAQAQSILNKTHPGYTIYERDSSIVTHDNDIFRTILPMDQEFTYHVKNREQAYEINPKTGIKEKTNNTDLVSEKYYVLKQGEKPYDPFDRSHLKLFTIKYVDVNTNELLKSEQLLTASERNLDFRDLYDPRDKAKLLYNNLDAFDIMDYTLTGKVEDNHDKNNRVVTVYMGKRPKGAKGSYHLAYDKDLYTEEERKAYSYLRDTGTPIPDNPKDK
The experiment in a line: S. pyogenes streptokinase expression inhibitors, potency, dose response, plasminogen activation absorbance, OD405 (AID 1914).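 Further: secreted streptokinase activity via plasminogen activation per viability signal from cell pellet.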 Type of assay: functional, Streptococcus pyogenes M1 GAS.

Assay [7] has as its target Heat shock protein HSP 90-alpha (Homo sapiens, UniProt P07900). Type of assay: functional, organism-based.
Assay [8] is described as follows: nonselective inhibitors of cellular cAMP signaling, dose response, counter-screen for MC4R biased antagonist project, cell-based, TR-FRET cAMP detection (AID 602305).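 Further: U2OS cells stimulated with forskolin near its EC80 as the cAMP inducer; potency is for inhibition of forskolin-stimulated cAMP signaling.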 Format: functional. (In general: The purpose of a counterscreen is to sort out artefacts and off-target activity.)
The subject of assay [9] is CHO. Briefly: cytotoxicity in TLR9-MyD88 CHO cells, dose response, cytotoxicity control for TLR9-MyD88 binding inhibitor project, cell-based, luminescence (AID 588339).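 Further: CHO cells stably coexpressing TLR9 and MyD88 fusions from primary screen; compound exposure lasted 48 hours before viability readout.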 Type of assay: functional, hamster. The note with it: Cricetulus griseus.
Assay [10] has as its system Streptococcus. The experiment in a line: Group A Streptococcus viability loss, dose response, counter-screen for streptokinase expression inhibitor project, luminescence, BacTiterGlo (AID 1915).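 Further: potency for reduction of bacterial viability or growth.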 Type of assay: functional, organism-based.
A short description of assay [11]: cytotoxicity toward NIH3T3 fibroblasts, dose response, counter-screen, cell-based, ATP luminescence, mouse fibroblasts (AID 2010).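 Further: cells exposed to compound for about 90 hours before reading.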 Type of assay: functional.
Assay [12] concerns the target Cyclin-dependent kinase 9 (Homo sapiens, UniProt P50750). Format: functional.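 Further: value from the CDK9 entry of a kinome-spanning kinase panel.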
The target in assay [13] is Glycogen synthase kinase-3 beta (Homo sapiens, UniProt P49841). Type of assay: functional.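 Further: value comes from a broad kinome profiling panel, with GSK3B as the panel member.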
The target in assay [14] is Dual specificity tyrosine-phosphorylation-regulated kinase 1A (Homo sapiens, UniProt Q13627). Format: functional.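 Further: measured against DYRK1A as one member of a broad kinome profiling panel.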
Assay [15] deals with Cyclin-dependent kinase 7 (Homo sapiens, UniProt P50613). Type of assay: functional.
Assay [16] addresses Platelet-derived growth factor receptor alpha (Homo sapiens, UniProt P16234). Briefly: Navigating the Kinome. Panel member name: PDGFRA. Type of assay: functional.
The target of assay [17] is Proto-oncogene tyrosine-protein kinase receptor Ret (Homo sapiens, UniProt P07949). Type of assay: functional.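 Further: measured within a kinome-wide profiling panel, RET as the panel member.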
The target of assay [18] is Glycogen synthase kinase-3 alpha (Homo sapiens, UniProt P49840). Type of assay: functional.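 Further: GSK3A result taken from a broad kinome-wide kinase panel.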
Assay [19] deals with Dual specificity protein kinase CLK2 (Homo sapiens, UniProt P49760). Type of assay: functional.
The target of assay [20] is cAMP-dependent protein kinase catalytic subunit PRKX (Homo sapiens, UniProt P51817). Format: functional.
For assay [21], the target named is Macrophage colony-stimulating factor 1 receptor (Homo sapiens, UniProt P07333). Format: functional.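 Further: value comes from the Navigating the Kinome screening panel, CSF1R member.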
The target in assay [22] is Mitogen-activated protein kinase kinase kinase kinase 2 (Homo sapiens, UniProt Q12851). Format: functional.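 Further: measured as one member of a kinome-wide kinase panel, with MAP4K2 as the panel entry.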
For assay [23], the target named is Casein kinase I isoform alpha (Homo sapiens, UniProt P48729). Format: functional.
The target of assay [24] is Tyrosine-protein kinase JAK2 (Homo sapiens, UniProt O60674). Format: functional.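 Further: JAK2 tested as one member of a kinase panel.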
In assay [25] the target is Vascular endothelial growth factor receptor 1 (Homo sapiens, UniProt P17948). Format: functional.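 Further: measured within a kinome-wide profiling panel, FLT1 as the panel member.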
In assay [26] the target is Vascular endothelial growth factor receptor 2 (Homo sapiens, UniProt P35968). Type of assay: functional.
In assay [27] the target is Inhibitor of nuclear factor kappa-B kinase subunit epsilon (Homo sapiens, UniProt Q14164). The experiment in a line: Navigating the Kinome. Panel member name: IKBKE. Format: functional.
Assay [28] has as its target Platelet-derived growth factor receptor beta (Homo sapiens, UniProt P09619). Type of assay: functional.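 Further: value comes from a kinome panel, with PDGFRB tested as one panel member.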
The target in assay [29] is Cyclin-dependent kinase 5 (Homo sapiens, UniProt Q00535). Format: functional.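 Further: CDK5 measured as one member of a kinase profiling panel.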
Assay [30] concerns the target Death-associated protein kinase 3 (Homo sapiens, UniProt O43293). Format: functional.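 Further: measured as one member of a kinome-wide profiling panel.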
The target in assay [31] is Serine/threonine-protein kinase D3 (Homo sapiens, UniProt O94806). Format: functional.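 Further: determined within a kinase panel screen, with PRKCN as the panel member.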
In assay [32] the target is Serine/threonine-protein kinase TBK1 (Homo sapiens, UniProt Q9UHD2). Briefly: Navigating the Kinome. Panel member name: TBK1. Type of assay: functional.
Assay [33] concerns the target Dual specificity protein kinase CLK4 (Homo sapiens, UniProt Q9HAZ1). Type of assay: functional.
For assay [34], the target named is Aurora kinase A (Homo sapiens, UniProt O14965). Type of assay: functional.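 Further: value from the Navigating the Kinome kinase panel profiling, panel entry STK6.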
Assay [35] concerns the target Leucine-rich repeat serine/threonine-protein kinase 2 (Homo sapiens, UniProt Q5S007). Type of assay: functional.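 Further: value from a broad kinome-wide panel profiling study in which LRRK2 was one of the kinases tested.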
In assay [36] the target is Tyrosine-protein kinase receptor TYRO3 (Homo sapiens, UniProt Q06418). Format: functional.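 Further: TYRO3 value obtained as one member of a kinome-wide profiling panel.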
The target in assay [37] is Serine/threonine-protein kinase TAO1 (Homo sapiens, UniProt Q7L7X3). Type of assay: functional.
Assay [38] addresses Leukocyte tyrosine kinase receptor (Homo sapiens, UniProt P29376). The experiment in a line: Navigating the Kinome. Panel member name: LTK. Type of assay: functional.
Assay [39] addresses Dual specificity tyrosine-phosphorylation-regulated kinase 1B (Homo sapiens, UniProt Q9Y463). The experiment in a line: Navigating the Kinome. Panel member name: DYRK1B. Type of assay: functional.
Assay [40] has as its target cAMP-dependent protein kinase catalytic subunit alpha (Homo sapiens, UniProt P17612). Type of assay: functional.
Assay [41] concerns the target Fibroblast growth factor receptor 1 (Homo sapiens, UniProt P11362). Format: functional.
The target of assay [42] is Mitogen-activated protein kinase kinase kinase kinase 4 (Homo sapiens, UniProt O95819). Type of assay: functional.
Assay [43] has as its target Serine/threonine-protein kinase PAK 4 (Homo sapiens, UniProt O96013). Type of assay: functional.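 Further: value obtained within a kinome profiling panel in which PAK4 was one of the panel members.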
Assay [44] has as its target Melanin-concentrating hormone receptor 1 (Homo sapiens, UniProt Q99705). Briefly: Late-stage fluorescence-based counterscreen for antagonists of the G-protein coupled receptor 7 (GPR7): cell-based dose response assay to identify antagonists of the melanin-concentrating hormone receptor 1 (MCHR1) Set 6. Type of assay: functional.
The target of assay [45] is T2, Neuropeptides B/W receptor type 1 (Homo sapiens, UniProt P48145).
T2 sequence (P48145 whole entry): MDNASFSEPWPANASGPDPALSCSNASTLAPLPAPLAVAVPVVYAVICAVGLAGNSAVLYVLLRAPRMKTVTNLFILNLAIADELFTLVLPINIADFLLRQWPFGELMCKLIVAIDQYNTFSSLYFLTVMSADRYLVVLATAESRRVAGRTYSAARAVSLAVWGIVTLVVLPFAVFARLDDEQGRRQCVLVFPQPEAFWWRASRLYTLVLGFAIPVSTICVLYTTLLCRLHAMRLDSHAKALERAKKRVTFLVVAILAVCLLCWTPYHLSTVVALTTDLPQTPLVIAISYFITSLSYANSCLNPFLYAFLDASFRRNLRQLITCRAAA
The experiment in a line: GPR7 antagonist potency, late-stage follow-up, cell-based, fluorescence, dose response, set 6 (AID 588583). Type of assay: functional.

Activity calls are given as the source filed them.

Broadly, the IC50 is the concentration at which inhibition is half-maximal. In general, EC50 refers to the concentration needed to bring the measured effect to its halfway point. As usually defined, the AC50 is the concentration giving half of the maximal activity seen. By Ki is commonly meant the equilibrium dissociation constant of an inhibitor or competing ligand from its target.

Chain of Dual specificity tyrosine-phosphorylation-regulated kinase 1B (Q9Y463 whole entry): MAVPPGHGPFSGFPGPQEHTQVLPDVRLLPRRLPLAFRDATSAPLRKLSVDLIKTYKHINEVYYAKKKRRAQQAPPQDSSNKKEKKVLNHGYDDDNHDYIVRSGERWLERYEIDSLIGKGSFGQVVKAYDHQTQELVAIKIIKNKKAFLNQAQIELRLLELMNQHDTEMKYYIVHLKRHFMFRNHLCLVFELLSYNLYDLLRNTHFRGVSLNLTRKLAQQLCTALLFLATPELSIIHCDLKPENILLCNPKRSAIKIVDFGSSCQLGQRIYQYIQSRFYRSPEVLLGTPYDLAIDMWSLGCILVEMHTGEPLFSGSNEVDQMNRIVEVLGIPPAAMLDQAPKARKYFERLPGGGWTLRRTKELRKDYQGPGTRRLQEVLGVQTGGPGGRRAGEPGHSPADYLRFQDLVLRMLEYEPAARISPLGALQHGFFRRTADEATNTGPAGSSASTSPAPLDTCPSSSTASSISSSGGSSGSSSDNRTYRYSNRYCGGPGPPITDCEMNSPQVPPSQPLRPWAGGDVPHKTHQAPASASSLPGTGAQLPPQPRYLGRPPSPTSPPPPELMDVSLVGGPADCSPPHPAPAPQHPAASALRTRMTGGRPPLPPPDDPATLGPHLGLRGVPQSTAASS
Chain of Glycogen synthase kinase-3 beta (P49841 whole entry): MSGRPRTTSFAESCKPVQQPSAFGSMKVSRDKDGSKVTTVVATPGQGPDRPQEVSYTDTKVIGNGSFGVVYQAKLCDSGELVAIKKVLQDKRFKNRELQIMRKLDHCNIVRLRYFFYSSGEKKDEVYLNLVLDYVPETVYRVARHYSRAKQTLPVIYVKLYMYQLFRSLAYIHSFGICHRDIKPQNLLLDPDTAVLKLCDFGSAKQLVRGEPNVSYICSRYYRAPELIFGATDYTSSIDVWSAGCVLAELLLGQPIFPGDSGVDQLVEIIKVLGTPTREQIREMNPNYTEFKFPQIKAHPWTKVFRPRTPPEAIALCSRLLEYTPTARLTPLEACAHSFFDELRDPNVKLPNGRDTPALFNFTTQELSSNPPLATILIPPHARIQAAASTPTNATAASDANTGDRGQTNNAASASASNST
Chain of Melanin-concentrating hormone receptor 1 (Q99705 whole entry): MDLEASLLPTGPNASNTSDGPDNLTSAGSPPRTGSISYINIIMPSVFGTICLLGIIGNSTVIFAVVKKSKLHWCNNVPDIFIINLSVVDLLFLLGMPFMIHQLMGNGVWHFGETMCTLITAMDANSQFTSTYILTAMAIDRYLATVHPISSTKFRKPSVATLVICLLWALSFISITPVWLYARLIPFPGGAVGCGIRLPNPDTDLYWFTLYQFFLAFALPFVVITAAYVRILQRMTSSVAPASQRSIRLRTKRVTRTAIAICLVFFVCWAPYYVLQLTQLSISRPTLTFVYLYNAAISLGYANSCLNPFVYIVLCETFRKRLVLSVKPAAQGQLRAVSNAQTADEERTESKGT
Chain of Cyclin-dependent kinase 5 (Q00535 whole entry): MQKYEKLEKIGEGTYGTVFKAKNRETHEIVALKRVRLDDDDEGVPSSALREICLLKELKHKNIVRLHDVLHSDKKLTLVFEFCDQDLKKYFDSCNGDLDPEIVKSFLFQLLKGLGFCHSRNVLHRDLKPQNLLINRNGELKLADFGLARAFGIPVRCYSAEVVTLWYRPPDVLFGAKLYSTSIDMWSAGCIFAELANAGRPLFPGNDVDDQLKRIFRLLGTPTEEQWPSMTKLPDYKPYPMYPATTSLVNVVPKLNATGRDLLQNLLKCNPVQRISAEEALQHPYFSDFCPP
Chain of Cyclin-dependent kinase 9 (P50750 whole entry): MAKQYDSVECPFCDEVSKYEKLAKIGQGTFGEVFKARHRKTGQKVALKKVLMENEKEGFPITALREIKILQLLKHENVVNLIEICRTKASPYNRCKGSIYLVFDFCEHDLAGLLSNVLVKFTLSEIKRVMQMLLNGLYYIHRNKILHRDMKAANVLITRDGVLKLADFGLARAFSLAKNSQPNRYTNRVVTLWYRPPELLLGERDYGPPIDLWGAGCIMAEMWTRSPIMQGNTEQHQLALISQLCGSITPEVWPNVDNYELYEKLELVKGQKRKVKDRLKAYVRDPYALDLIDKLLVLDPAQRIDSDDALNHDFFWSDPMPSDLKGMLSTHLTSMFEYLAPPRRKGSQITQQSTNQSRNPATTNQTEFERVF
Chain of Glucose-6-phosphate 1-dehydrogenase (P11413 whole entry): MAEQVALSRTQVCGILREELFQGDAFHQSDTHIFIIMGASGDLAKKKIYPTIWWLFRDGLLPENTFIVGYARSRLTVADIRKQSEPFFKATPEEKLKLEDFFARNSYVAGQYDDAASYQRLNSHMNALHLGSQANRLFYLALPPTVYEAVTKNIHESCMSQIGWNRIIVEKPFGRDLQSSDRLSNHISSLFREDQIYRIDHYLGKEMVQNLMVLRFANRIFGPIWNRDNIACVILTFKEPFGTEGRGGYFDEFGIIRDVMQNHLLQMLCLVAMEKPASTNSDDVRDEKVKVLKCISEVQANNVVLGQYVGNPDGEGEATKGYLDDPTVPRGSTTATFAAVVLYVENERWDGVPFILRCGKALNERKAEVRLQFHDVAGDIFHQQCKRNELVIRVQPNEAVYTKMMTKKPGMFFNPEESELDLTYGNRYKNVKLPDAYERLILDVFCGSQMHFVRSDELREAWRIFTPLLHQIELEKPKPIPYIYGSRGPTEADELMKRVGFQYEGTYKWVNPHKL
Chain of Leukocyte tyrosine kinase receptor (P29376 whole entry): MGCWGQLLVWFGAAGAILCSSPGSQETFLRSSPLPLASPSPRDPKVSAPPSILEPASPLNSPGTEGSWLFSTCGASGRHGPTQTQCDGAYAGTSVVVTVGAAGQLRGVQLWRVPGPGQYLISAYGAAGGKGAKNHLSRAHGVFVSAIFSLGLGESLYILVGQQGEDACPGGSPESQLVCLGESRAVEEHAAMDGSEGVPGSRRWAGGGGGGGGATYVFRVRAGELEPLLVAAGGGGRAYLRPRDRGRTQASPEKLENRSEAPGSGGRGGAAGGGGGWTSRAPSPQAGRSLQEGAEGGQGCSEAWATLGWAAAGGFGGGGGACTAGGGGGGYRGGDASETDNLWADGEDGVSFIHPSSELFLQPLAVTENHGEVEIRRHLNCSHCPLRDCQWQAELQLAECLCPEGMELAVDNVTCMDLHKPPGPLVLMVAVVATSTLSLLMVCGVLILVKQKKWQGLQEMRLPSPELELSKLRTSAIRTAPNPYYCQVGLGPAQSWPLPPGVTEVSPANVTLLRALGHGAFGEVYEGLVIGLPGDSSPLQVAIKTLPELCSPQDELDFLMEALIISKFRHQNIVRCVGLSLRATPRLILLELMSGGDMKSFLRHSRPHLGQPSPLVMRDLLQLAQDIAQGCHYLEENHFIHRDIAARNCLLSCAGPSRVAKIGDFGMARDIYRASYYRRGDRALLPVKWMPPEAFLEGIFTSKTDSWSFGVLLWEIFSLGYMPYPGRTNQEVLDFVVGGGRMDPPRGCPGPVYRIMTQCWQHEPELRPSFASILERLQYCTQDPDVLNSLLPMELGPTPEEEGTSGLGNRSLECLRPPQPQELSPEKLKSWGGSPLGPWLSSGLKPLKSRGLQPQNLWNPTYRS
Chain of cAMP-dependent protein kinase catalytic subunit PRKX (P51817 whole entry): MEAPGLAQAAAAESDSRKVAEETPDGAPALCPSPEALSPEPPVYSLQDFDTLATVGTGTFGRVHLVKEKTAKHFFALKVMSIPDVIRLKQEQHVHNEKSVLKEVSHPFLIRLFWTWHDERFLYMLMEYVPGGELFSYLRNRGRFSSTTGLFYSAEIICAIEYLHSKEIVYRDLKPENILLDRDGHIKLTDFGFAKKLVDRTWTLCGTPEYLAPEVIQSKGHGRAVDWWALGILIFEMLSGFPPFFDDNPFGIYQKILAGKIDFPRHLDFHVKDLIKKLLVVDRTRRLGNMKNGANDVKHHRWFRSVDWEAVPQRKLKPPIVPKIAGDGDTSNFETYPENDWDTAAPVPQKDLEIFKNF
Chain of Death-associated protein kinase 3 (O43293 whole entry): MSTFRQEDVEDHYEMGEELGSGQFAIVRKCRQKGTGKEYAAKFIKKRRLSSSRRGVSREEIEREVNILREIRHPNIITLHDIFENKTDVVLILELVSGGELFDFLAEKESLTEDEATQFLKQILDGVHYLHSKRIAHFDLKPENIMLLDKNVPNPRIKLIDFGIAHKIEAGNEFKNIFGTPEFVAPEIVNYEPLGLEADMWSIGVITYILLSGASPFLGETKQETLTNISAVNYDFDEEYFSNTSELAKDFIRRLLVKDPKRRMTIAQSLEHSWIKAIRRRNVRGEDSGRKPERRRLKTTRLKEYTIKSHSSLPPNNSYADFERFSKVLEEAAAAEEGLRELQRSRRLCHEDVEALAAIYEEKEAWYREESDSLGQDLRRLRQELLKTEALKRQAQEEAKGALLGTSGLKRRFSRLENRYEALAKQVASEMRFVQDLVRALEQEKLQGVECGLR
Chain of Beta Lactamase (Q932Y6 whole entry): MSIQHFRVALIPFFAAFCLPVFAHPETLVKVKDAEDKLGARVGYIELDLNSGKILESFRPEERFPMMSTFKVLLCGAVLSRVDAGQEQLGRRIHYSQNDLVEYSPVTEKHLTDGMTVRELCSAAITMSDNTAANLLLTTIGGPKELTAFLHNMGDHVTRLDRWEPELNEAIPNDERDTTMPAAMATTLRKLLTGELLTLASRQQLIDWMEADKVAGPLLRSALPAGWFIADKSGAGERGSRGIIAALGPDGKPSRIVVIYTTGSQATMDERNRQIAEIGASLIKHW
Chain of Casein kinase I isoform alpha (P48729 whole entry, canonical isoform): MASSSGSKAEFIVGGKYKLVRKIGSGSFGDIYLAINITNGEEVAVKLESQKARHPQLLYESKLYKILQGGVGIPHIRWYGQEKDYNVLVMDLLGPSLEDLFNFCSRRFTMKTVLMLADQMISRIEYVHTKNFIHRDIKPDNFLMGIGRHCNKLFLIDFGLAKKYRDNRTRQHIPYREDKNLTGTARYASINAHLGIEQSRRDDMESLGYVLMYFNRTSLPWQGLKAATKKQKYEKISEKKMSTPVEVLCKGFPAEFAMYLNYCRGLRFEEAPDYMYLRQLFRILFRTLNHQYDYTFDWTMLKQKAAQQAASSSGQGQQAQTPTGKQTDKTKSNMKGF

Regarding `Cc1ccc(NC(=O)c2cc(N3C(=O)C=CC3=O)ccc2N2CCOCC2)cc1Cl`, the IC50 in [1] was 9.48 µM (active); in assay [2], 48.1 µM (inactive); in assay [4], 8.43 µM (active); in assay [8], 28.6 µM (inactive); in [9], 1.7 µM (active). Moreover, the EC50 was 12 µM (active) in [3]; 2.01 µM (active) in [5]; 6.68 µM (active) in [6]; 13.4 µM (active) in assay [10]; 6.37 µM (active) in assay [11]. The AC50 in [7] was < 0.195 µM (active).
Take `CC(=O)c1ccccc1-c1ncnc2[nH]ccc12`: the Ki in assay [12] was 50.1 µM (active); in assay [13], 63.1 µM (active); in [14], 20 µM (active); in [15], 63.1 µM (active); in assay [16], 31.6 µM (active); in assay [17] it was 39.8 µM (active). The Ki was 63.1 µM (active) in [18]; 20 µM (active) in [19]; 39.8 µM (active) in assay [20]; 63.1 µM (active) in [21]; 25.1 µM (active) in assay [22]; 50.1 µM (active) in assay [23]. Moreover, the Ki in assay [24] is 50.1 µM (active); in assay [25] it was 39.8 µM (active); in assay [26] it was 15.8 µM (active); in assay [27] it was 100 µM (active); in assay [28], 31.6 µM (active); in assay [29] it was 50.1 µM (active). Besides, the Ki is 63.1 µM (active) in assay [30]; 39.8 µM (active) in assay [31]; 63.1 µM (active) in [32]; 2.51 µM (active) in assay [33]; > 63.1 µM (inactive) in assay [34]; 12.6 µM (active) in [35]. Moreover, the Ki in [36] was 63.1 µM (active); in assay [37], 39.8 µM (active); in assay [38], 39.8 µM (active); in assay [39], 20 µM (active); in assay [40], 15.8 µM (active); in assay [41] it was 63.1 µM (active). Moreover, the Ki in assay [42] and in [43] was 50.1 µM (active) throughout.
Take `O=c1c(-c2cccc(F)c2)c(Br)cnn1Cc1cccc2ccccc12`: the IC50 in assay [44] and in [45] was 0.533 µM (active) in each case.
